Where a name gives a salt, the structure may show the parent alone.

A word on the IC50: it is the point on the concentration scale where inhibition reaches its midpoint.

For the assay, the target named is HPK1 (Homo sapiens (Human), UniProt Q92918). Briefly: HPK1 biochemical enzyme assay (microfluidic mobility shift assay). The conditions noted are these: 1.5 nM HPK1, ATP 1 mM final, 30 min preincubation, 60 min at RT, Caliper EZ Reader; read-out: HPK1 1000UMATP caliper IC50. The method, boiled down: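 Ten-point compound titrations (top 3 μM final) preincubated 30 min with HPK1 and substrate, then reaction started with 1 mM ATP and 1 μM substrate, 5 mM MgCl2. After 60 min at RT, reaction terminated and product measured by microfluidic mobility shift.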
HPK1, sequence (Q92918 whole entry): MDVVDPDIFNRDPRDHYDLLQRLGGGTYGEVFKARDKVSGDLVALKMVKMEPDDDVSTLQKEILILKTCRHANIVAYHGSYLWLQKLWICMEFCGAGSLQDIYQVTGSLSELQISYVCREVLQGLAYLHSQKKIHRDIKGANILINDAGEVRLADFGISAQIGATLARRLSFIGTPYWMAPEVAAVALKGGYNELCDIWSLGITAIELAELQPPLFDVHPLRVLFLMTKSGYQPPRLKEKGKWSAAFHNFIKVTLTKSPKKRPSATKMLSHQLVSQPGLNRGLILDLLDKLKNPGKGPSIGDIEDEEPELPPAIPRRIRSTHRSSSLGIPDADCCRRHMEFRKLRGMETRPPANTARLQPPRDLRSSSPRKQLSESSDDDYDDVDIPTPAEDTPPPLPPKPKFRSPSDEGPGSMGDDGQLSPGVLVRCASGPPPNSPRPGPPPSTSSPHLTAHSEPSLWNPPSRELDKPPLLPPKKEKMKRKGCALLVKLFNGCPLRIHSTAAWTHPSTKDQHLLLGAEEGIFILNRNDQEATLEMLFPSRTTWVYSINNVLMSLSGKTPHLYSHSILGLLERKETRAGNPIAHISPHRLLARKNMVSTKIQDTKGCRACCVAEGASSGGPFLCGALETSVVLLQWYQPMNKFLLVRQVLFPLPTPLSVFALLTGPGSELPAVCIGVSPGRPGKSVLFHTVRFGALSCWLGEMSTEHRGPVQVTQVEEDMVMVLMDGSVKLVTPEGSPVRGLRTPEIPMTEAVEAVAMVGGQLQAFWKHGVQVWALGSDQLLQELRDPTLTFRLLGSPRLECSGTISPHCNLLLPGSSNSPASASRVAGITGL
As for `CN(C)C1COCCN(c2ccc(Nc3ccc(-c4cnc5cc(F)ccn45)c4c3C(=O)NC4)nc2)C1` (stereo not drawn) [I-509, 7-[[5-[6-(dimethylami-no)-l,4-oxazepan-4-yl]-2-pyridyl]amino]-4-(7-fluoroimidazo [1,2-a]pyridin-3-yl)isoindolin-1-one Formic acid salt], the half-maximal inhibitory concentration (IC50) was less than 100 nM.
With `CN(C)Cc1nc(Nc2ccc(-c3cnc4cc(F)ccn34)c3c2C(=O)NC3)ccc1N1CCOCC1` [I-693, 7-((6-((dimethylamino)-methyl)-5-morpholino-pyridin-2-yl)amino)-4-(7-fluoroimidazo [1,2-a]pyridin-3-yl)isoindolin-1-one], the IC50 was less than 100 nM.
As for `C[C@@H]1C[C@@H](O)CCN1c1ccc(Nc2ccc(-c3cnc4cnccn34)c3c2C(=O)NC3)nc1` [I-351, 7-((5-((2R,4S)-4-hydroxy-2-methylpiperidin-1-yl)pyridin-2-yl)amino)-4-(imidazo[1,2-a]pyrazin-3-yl)isoindolin-1-one], the figure is less than 100 nM.
As for `CN[C@@H]1CCCN(c2cccc(Nc3cnc(-c4ccnc5c4ccn5C)c4c3C(=O)NC4)n2)C1` [I-239, 7-[[6-[(3R)-3-(methylamino)-1-piperidyl]-2-pyridyl]-amino]-4-(1-methylpyrrolo [2,3-b]pyridin-4-yl)-2,3-dihydropyrrolo [3,4-c]pyridin-1-one], the figure is 100 to 1000 nM; as for `CN1CCN(c2ccc(Nc3cnc(-c4c[nH]c5ncccc45)c4c3C(=O)NC4)nc2)CC1` [I-6, 7-((5-(4-Methylpiperazin-1-yl)pyridin-2-yl)amino)-4-(1H-pyrrolo[2,3-b]pyridin-3-yl)-2,3-dihydro-1H-pyrrolo[3,4-c]pyridin-1-one], less than 100 nM; as for `CN(C)Cc1nc(Nc2ccc(-c3cnc4cc(F)ccn34)c3c2C(=O)NC3)ccc1[C@H]1CCCO1` [I-554, (R)-7-((6-((dimethylamino)-methyl)-5-(tetrahydrofuran-2-yl)pyridin-2-yl)amino)-4-(7-fluoroimidazo [1,2-a]pyridin-3-yl)isoindolin-1-one], less than 100 nM.
As for `N#Cc1ccn2c(-c3ccc(Nc4ccc(N5CCC(O)CC5)cn4)c4c3CNC4=O)cnc2c1` [I-182, 3-[7-[[5-(4-hydroxy-1-piperidyl)-2-pyridyl]amino]-1-oxo-isoindolin-4-yl]imidazo[1,2-a]pyridine-7-carbonitrile], the figure is less than 100 nM; as for `CN(C)Cc1nc(Nc2cnc(-c3ccnc4c3ccn4C)c3c2C(=O)NC3)ccc1N1CCOCC1` [I-768, 7-((6-((dimethylamino)-methyl)-5-morpholinopy-ridin-2-yl)amino)-4-(1-methyl-1H-pyrrolo[2,3-b]pyridin-4-yl)-2,3-dihydro-1H-pyrrolo[3,4-c]pyridin-1-one], less than 100 nM.
With `CO[C@@H]1CCN(Cc2nc(Nc3ccc(-c4cnc5cc(F)ccn45)c4c3C(=O)NC4)ccc2[C@@H]2CCOC2)C1` [I-781, 4-(7-fluoroimidazo [1,2-a]pyridin-3-yl)-7-((6-(((R)-3-methoxypyrrol-idin-1-yl)methyl)-5-((S)-tetrahydrofuran-3-yl)pyridin-2-yl)amino)isoin-dolin-1-one], the IC50 was less than 100 nM.
Next, `Cn1ccc2c(-c3ccc(Nc4ccc(N5CCC[C@@H](N)C5)cn4)c4c3CNC4=O)ccnc21` [I-95, 7-[[5-[(3R)-3-amino-1-piperipyl]-2-pyridyl]amino]-4-(1-methylpyrrolo [2,3-b]pyridin-4-yl)isoindolin-1-one]: less than 100 nM; `Cn1cnc2c(-c3ccc(Nc4ccc(N5CCC(O)CC5)cn4)c4c3CNC4=O)ccnc21` [I-152, 7-[[5-(4-hydroxy-1-piperidyl)-2-pyridyl]amino]-4-(3-methylimidazo [4,5-b]pyridin-7-yl)isoindolin-1-one]: less than 100 nM.
Consider `CN(C)Cc1nc(Nc2ccc(-c3ccnc4c3ccn4C)c3c2C(=O)NC3)ccc1[C@@H]1CCOC1` [I-545, (S)-7-((6-((dimethylamino)-methyl)-5-(tetrahydrofuran-3-yl)pyridin-2-yl)amino)-4-(1-methyl-1H-pyrrolo[2,3-b]pyridin-4-yl)isoindolin-1-one], for which the IC50 is less than 100 nM.
As for `CN(C)Cc1nc(Nc2cnc(-c3cccc4c3ccn4C)c3c2C(=O)NC3)ccc1[C@H]1CCOC1` [I-547, (R)-7-((6-((dimethylamino)-methyl)-5-(tetrahydrofuran-3-yl)pyridin-2-yl)amino)-4-(1-methyl-1H-indol-4-yl)-2,3-dihydro-1H-pyrrolo[3,4-c]pyridin-1-one], the figure is less than 100 nM.
Turning to `CN1CCc2c(-c3ccc(Nc4ccc(N5CCNCC5)cn4)c4c3CNC4=O)ccnc21` [I-93, 4-(1-methyl-2,3-dihydropyrrolo [2,3-b]pyridin-4-yl)-7-[(5-piperazin-1-yl-2-pyridyl)amino] isoindolin-1-one], the IC50 was less than 100 nM.
As for `CNC1CCN(c2ccc(Nc3ccc(-c4ccnc5c4ccn5C)c4c3C(=O)NC4)nc2)CC1` [I-62, 7-[[5-[4-(methylamino)-1-piperidyl]-2-pyridyl]amino]-4-(1-methylpyrrolo [2,3-b]pyridin-4-yl)isoindolin-1-one], the figure is less than 100 nM.
As for `Cn1ccc2c(-c3ncc(Nc4ccc(C5(O)CCOCC5)cn4)c4c3CNC4=O)ccnc21` [I-427], the figure is less than 100 nM; as for `CN(C)Cc1nc(Nc2ccc(-c3cnc4cc(F)ccn34)c3c2C(=O)NC3)cnc1C1CCOC1` (stereo in doubt) [I-799, (S)-7-((6-((dimethylamino)-methyl)-5-(tetrahydrofu-ran-3-yl)pyrazin-2-yl)amino)-4-(7-fluoroimidazo [1,2-a]pyridin-3-yl)isoindolm-1-one], less than 100 nM; as for `CCN(CC)Cc1nc(Nc2ccc(-c3cnc4cc(F)ccn34)c3c2C(=O)NC3)ccc1[C@@H]1CCOC1` [I-511, (S)-7-((6-((diethylamino)methyl)-5-(tetrahydrofuran-3-yl)pyridin-2-yl)amino)-4-(7-fluoroimidazo [1,2-a]pyridin-3-yl)isoindolin-1-one], less than 100 nM.
As for `CN1CCN(CC2(O)CCCN(c3ccc(Nc4ccc(-c5cnc6cc(F)ccn56)c5c4C(=O)NC5)nc3)C2)CC1` (stereo not drawn) [I-388, 4-(7-fluoroimidazo [1,2-a]pyridin-3-yl)-7-((5-(3-hydroxy-3-((4-methylpiperazin-1-yl)methyl)piper-idin-1-yl)pyridin-2-yl)amino)isoin-dolin-1-one], the figure is less than 100 nM.
On to `Cc1ccn2c(-c3ccc(Nc4ccc(N5CCO[C@H](CO)C5)cn4)c4c3CNC4=O)cnc2n1` [I-452, 7-[[5-[(2S)-2-(hydroxymeth-yl)morpholin-4-yl]-2-pyridyl]amino]-4-(7-methylimidazo [1,2-a]pyrimidin-3-yl)isoindolin-1-one], for which the half-maximal inhibitory concentration (IC50) was less than 100 nM.
Next, `CN1CCN(c2ccc(Nc3ccc(-c4cccc5nccn45)c4c3C(=O)NC4)nc2)CC1` [I-25, 4-imidazo[1,2-a]pyridin-5-yl-7-[[5-(4-methylpiperazin-1-yl)-2-pyridyl]amino] isoindolin-1-one]: 100 to 1000 nM.
As for “7-[[6- [(dimethylamino)- methyl]-5- tetrahydrofuran- 3-yl-2- pyridyl]amino]- 4-(7- methylimidazo [1,2-a]pyrimidin-3- yl)isoindolin- 1-one [I-846]”, the figure is less than 100 nM.
Next, `C[C@@H]1COCCN1c1ccc(Nc2ccc(-c3cnc4cc(F)ccn34)c3c2C(=O)NC3)nc1CN(C)C` [I-528, 7-[[6-[(dimethylamino)-methyl]-5-[(3R)-3-methylmorpho-lin-4-yl J-2-pyridyl]amino]-4-(7-fluoroimidazo [1,2-a]pyridin-3-yl)isoindolin-1-one Formic acid salt]: less than 100 nM; `Cn1ccc2c(-c3ncc(Nc4cccc(N5C[C@@H](N6CCC6)CC5=O)n4)c4c3CNC4=O)ccnc21` [I-725, (S)-7-((6-(4-(azetidin-1-yl)-2-oxopyrrolidin-1-yl)pyridin-2-yl)amino)-4-(1-methyl-1H-pyrrolo[2,3-b]pyridin-4-yl)-2,3-dihydro-1H-pyrrolo[3,4-c]pyridin-1-one]: less than 100 nM.
Turning to `CC(C)(O)[C@H]1CN(c2ccc(Nc3cnc(-c4cnc5ccccn45)c4c3C(=O)NC4)nc2)CCO1` [I-470, 7-[[5-[(2R)-2-(1-hydroxy-1-methyl-ethyl)morpholin-4-yl]-2-pyridyl]amino]-4-imidazo[1,2-a]pyridin-3-yl-2,3-dihydropyrrolo [3,4-c]pyridin-1-one], the IC50 is more than 1000 nM.
As for `CCNC(=O)c1ccc(Nc2ccc(-c3ccnc4c3ccn4C)c3c2C(=O)NC3)nc1` [I-109, N-ethyl-6-[[7-(1-methylpyrrolo [2,3-b]pyridin-4-yl)-3-oxo-isoindolin-4-yl]amino]pyridine-3-carboxamide], the figure is less than 100 nM; as for `Cc1ccc2c(-c3ccc(Nc4ccc(N5CCC(O)CC5)cn4)c4c3CNC4=O)cnn2c1` [I-137, 7-[[5-(4-hydroxy-1-piperidyl)-2-pyridyl]amino]-4-(6-methylpyrazolo[1,5-a]pyridin-3-yl)isoindolin-1-one], less than 100 nM.
As for `CN(C)Cc1nc(Nc2ccc(-c3cnc4cc(F)ccn34)c3c2C(=O)NC3)ccc1N1CCO[C@H](C(C)(C)O)C1` [I-774, (S)-7-((6-((dimethylamino)-methyl)-5-(2-(2-hydroxypropan-2-yl)morpho-lino)pyridin-2-yl)amino)-4-(7-fluoroimidazo [1,2-a]pyridin-3-yl)isoindolin-1-one], the figure is less than 100 nM; as for `Cc1cc(Nc2cnc(-c3ccnc4c3ccn4C)c3c2C(=O)NC3)nc(N2CC[C@H]3CN(C)C[C@H]32)c1` [I-643, 4-(1-methyl-1H-pyrrolo[2,3-b]pyridin-4-yl)-7-((4-methyl-6-((3aS,6aS)-5-methylhcxahydropyrrolo[3,4-b]pyrrol-1(2H)-yl)pyridin-2-yl)amino)-2,3-dihydro-1H-pyrrolo[3,4-c]pyridin-1-one], less than 100 nM.
Next, `CN1CCCc2c(-c3ccc(Nc4ccc(N5CCNCC5)cn4)c4c3CNC4=O)ccnc21` [I-118, 4-(8-methyl-6.7-dihydro-5H-1,8-naphthyridin-4-yl)-7-[(5-piperazin-1-yl-2-pyridyl)amino] isoindolin-1-one]: 100 to 1000 nM.

The record behind these values is patent publication US11021481B2, “Substituted isoindolin-1-ones and 2,3-dihydro-1h-pyrrolo[3,4-c]pyridin-1-ones as HPK1 antagonists” (Nimbus Saturn, Inc., priority 2019, dated 2021).
